One assay has as its target T1, TASK-1 (Homo sapiens, UniProt O14649).
T1 construct: gene KCNK3; human TASK-1 (KCNK3, NM_002246) cRNA expressed in Xenopus laevis oocytes
The experiment in a line: two-electrode voltage clamp in Xenopus oocytes, block of outward current. Format: cell-based. On the technique in general: Two-electrode voltage clamp holds a large cell at a set potential and records current.

The target in the next assay is T2, NaV1.5 (Homo sapiens, UniProt Q14524).
T2 construct: gene SCN5A; human Nav1.5 (hH1, M77235) cRNA expressed in Xenopus laevis oocytes
T2 sequence (Q14524 whole entry): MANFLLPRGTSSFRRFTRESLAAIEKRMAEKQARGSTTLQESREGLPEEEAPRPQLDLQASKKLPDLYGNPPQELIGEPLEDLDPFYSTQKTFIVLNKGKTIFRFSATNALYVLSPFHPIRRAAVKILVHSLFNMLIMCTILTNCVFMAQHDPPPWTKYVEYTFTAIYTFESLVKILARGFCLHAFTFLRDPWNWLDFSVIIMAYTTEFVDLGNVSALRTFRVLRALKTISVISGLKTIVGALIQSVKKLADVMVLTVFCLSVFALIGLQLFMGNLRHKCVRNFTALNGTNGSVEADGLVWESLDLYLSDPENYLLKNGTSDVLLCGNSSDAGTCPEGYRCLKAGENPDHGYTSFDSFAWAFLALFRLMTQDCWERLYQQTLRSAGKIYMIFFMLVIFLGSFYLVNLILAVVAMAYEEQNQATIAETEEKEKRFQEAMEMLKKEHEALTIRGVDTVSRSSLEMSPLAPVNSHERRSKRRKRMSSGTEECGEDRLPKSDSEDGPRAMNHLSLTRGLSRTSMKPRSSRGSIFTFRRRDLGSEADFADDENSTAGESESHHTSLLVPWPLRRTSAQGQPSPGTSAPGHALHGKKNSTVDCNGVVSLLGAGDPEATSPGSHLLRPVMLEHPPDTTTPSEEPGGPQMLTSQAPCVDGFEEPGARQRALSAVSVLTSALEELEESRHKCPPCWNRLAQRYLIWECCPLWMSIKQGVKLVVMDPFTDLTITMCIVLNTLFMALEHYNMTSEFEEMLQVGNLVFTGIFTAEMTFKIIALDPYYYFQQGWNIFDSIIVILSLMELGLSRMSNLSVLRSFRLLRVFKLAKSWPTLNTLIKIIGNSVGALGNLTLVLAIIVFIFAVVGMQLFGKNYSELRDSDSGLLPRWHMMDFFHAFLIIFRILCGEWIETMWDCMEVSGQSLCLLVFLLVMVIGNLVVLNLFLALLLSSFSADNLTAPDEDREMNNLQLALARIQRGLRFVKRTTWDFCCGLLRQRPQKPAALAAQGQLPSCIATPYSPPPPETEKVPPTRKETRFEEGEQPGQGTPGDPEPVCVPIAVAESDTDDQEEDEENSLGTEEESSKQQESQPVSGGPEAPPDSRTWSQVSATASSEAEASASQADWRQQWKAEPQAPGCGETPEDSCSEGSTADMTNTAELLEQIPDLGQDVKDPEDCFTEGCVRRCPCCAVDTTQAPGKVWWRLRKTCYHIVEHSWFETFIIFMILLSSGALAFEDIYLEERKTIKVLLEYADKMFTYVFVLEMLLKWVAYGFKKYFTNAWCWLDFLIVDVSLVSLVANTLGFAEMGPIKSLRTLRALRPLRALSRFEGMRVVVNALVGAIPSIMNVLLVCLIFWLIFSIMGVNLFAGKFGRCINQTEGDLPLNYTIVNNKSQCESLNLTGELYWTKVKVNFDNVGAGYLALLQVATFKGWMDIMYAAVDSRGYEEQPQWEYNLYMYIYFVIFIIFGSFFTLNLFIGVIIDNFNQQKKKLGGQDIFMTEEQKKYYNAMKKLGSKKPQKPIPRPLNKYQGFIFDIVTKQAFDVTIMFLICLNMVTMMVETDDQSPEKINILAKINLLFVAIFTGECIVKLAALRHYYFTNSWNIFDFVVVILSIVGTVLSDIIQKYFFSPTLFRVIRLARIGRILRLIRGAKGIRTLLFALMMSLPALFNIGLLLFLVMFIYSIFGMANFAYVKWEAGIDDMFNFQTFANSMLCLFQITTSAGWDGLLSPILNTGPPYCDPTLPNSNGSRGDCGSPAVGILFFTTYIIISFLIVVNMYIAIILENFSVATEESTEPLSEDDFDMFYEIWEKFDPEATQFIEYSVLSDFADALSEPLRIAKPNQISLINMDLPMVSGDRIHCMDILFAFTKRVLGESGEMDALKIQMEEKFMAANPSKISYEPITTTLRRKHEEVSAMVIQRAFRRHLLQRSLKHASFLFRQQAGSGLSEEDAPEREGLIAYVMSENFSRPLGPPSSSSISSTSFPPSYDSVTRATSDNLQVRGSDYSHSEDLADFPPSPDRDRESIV
The experiment in a line: two-electrode voltage clamp in Xenopus oocytes, block of inward current. Type of assay: cell-based.

From publication PMC8971525, “A New Strategy for Multitarget Drug Discovery/Repositioning Through the Identification of Similar 3D Amino Acid Patterns Among Proteins Structures: The Case of Tafluprost and its Effects on Cardiac Ion Channels” (Frontiers in Pharmacology, 2022) come the findings set out here.

T1 sequence (O14649 whole entry): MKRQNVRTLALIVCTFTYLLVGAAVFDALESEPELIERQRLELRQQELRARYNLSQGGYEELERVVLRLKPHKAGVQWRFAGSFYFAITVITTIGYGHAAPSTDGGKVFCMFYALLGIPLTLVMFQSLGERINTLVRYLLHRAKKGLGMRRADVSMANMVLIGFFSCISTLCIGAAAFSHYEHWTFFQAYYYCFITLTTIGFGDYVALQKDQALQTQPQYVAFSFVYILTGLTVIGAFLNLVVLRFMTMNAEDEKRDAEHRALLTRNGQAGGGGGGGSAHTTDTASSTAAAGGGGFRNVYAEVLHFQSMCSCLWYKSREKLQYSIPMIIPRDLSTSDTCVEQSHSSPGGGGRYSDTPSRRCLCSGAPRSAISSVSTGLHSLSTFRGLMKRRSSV

What is called EC50 is the midpoint of the concentration-response curve. The low end stands for greater potency, the high end for weaker potency. The term IC50 denotes the concentration that gives 50% inhibition. As for `CC(C)OC(=O)CCC/C=C\C[C@@H]1[C@@H](/C=C/C(F)(F)COc2ccccc2)[C@H](O)C[C@@H]1O` [tafluprost], the half-maximal effective concentration (EC50) at TASK-1 was 0.186 ± 0.04 µM. Besides, the IC50 against NaV1.5 is roughly 76 µM.
